Measured values reported in ChEMBL document CHEMBL1153808, “Antimalarial benzylisoquinoline alkaloid from the rainforest tree Doryphora sassafras” (J Nat Prod, 2009).

How the values were obtained:
Plasmodium falciparum [1] = assay: microbe, parasite or virus in culture; details: Dd2, 72 h
Description: Antimalarial activity against chloroquine-resistant Plasmodium falciparum Dd2 after 72 hrs by DAPI staining method

in vitro [2] = details: human, HEK293 cells
Description: Selectivity index, ratio of antimicrobial activity against Plasmodium falciparum Dd2 over cytotoxicity against human HEK293 cells

HEK293 [3] = assay: Cytotoxicity against human HEK293 cells at 2 uM after 72 hrs by Alamar blue assay; type: cell-based; details: hek293, 72 h
Plasmodium falciparum [4] = assay: microbe, parasite or virus in culture; details: 3D7, 72 h
Description: Antimalarial activity against chloroquine-sensitive Plasmodium falciparum 3D7 after 72 hrs by DAPI staining method

in vitro [5] = details: human, HEK293 cells; remark: listed apart in the source
Description: Selectivity index, ratio of antimicrobial activity against Plasmodium falciparum 3D7 over cytotoxicity against human HEK293 cells

HEK293 [6] = assay: Cytotoxicity against human HEK293 cells at 120 uM after 72 hrs by Alamar blue assay; type: cell-based; details: hek293, 72 h

Compound | IC50 (Plasmodium falciparum [1]) [µM] | selectivity ratio (in vitro [2]) | Activity (HEK293 [3]) [%] | IC50 (Plasmodium falciparum [4]) [µM] | selectivity ratio (in vitro [5]) | Activity (HEK293 [6]) [%]
C[C@@H]1CC[C@H]2[C@@H](C)C(=O)O[C@@H]3O[C@@]4(C)CC[C@@H]1[C@]32OO4 [ARTEMISININ] | 0.021 | > 100 | 0 | 0.021 | > 100 | 
C[n+]1ccc2cc3c(cc2c1Cc1ccc(O)cc1)OCO3.O=C([O-])C(F)(F)F | 3 | > 27 |  | 4.4 | > 40 | 0
COc1ccc2c(c1O)-c1c(OC)c(OC)cc3c1[C@H](C2)NCC3.O=C(O)C(F)(F)F | 17 | > 6 |  | 19 | > 6 | 0
CCN(CC)CCCC(C)Nc1ccnc2cc(Cl)ccc12 (stereo unspecified) [CHLOROQUINE] |  |  | 0 |  |  | 
